In patent publication US20260048111A1, “Pharmaceutical Composition, Preparation Method and Use Thereof” (PuGong Biotech (Hangzhou) Co., Ltd., priority 2023, published 2026):
Read-outs that look alike come from different tables or passages of the source.

How the values were obtained:
[1] = test system: LLC cells; type: in vivo, mouse; details: for Tumor Inhibition Rate: LLC
Method: The LLC cells were cultured in DMEM medium containing […] high-quality fetal bovine serum, in a cell incubator with […] CO2 at 37° C.
The LLC cells (tumor source) in the logarithmic growth phase were collected, and 0.1 mL of cell suspension (containing approximately 1×10^6 cells) was inoculated subcutaneously into the axillary region of the corresponding C57/BL/6 mice.
(§1) On day 1 after tumor cell inoculation, all mice were randomly grouped before drug administration.
(§2) Dosing was performed according to the design of the pharmacological study protocol.
On day 7 and day 9 after tumor cell inoculation, the length (a) and width (b) of the tumor in each group of animals were measured externally. The tumor volume was estimated using the formula: V=0.52×a×b^2.
On day 10 after tumor cell inoculation, the experiment was terminated, and tumors were excised and weighed from each group of animals.
Statistical analysis and tumor inhibition rate calculation were performed as follows: Data were statistically analyzed using GraphPad Prism software. The tumor inhibition rate was calculated based on tumor size or tumor weight using the following formula: Tumor Inhibition Rate (%)=[(Average tumor volume or tumor weight of control group−Average tumor volume or tumor weight of treatment group)/Average tumor volume or tumor weight of control group]×[…].

[2] = test system: Mouse Lewis lung carcinoma (LLC) cells; assay: Anti-tumor efficacy of PGc alone and with anti-mouse PD-1, LLC tumor in C57BL/6 mice (Example 6); type: in vivo
Method: The LLC cells were cultured in DMEM medium containing 10% high-quality fetal bovine serum (FBS) and maintained in a cell incubator with 5% CO2 at 37° C.
The LLC cells (tumor source) in the logarithmic growth phase were collected, and 0.1 mL of cell suspension (approximately 1×10^6 cells) was inoculated subcutaneously into the axillary region of the corresponding mice.
as §1, §2
On day 10 after tumor cell inoculation, the experiment was terminated, and tumors in each group of animals were excised and weighed.
Statistical Analysis and Tumor Inhibition Rate Calculation was as follows: Data were statistically analyzed using GraphPad Prism software.

SMILES: O=P1(N(CCCl)CCCl)NCCCO1 (centres unmarked) [Cyclophosphamide (CTX), Cyclophosphamide]
- Tumor Volume (mm^3) X ([1]; LLC s.c. in C57/BL/6 mice, day 7 after tumor cell inoculation, group mean): 80.40 mm^3
- Tumor Volume (mm^3) X ([1]; LLC s.c. in C57/BL/6 mice, day 9 after tumor cell inoculation, group mean): 112.89 mm^3
- Tumor Weight (g) X ([1]; LLC s.c. in C57/BL/6 mice, day 10 after tumor cell inoculation, group mean): 0.13 g
- Tumor Inhibition Rate ([1]; day 7 after tumor cell inoculation, from tumor volume vs NS): 33%
- Tumor Inhibition Rate ([1]; day 9 after tumor cell inoculation, from tumor volume vs NS): 47%
- Tumor Inhibition Rate ([1]; day 10 after tumor cell inoculation, from tumor weight vs NS): 45%
- Tumor Weight (g) X ± SD ([2]; LLC s.c. in C57BL/6 mice, tumors excised at termination (day 8 in protocol table, day 10 in text)): 0.03 ± 0.02 g
- Tumor Inhibition Rate ([2]; LLC, from tumor weight vs NS): 42.80%
